{"source": "paper PMC11945079", "about": "“Gadolinium Complex with Tris-Hydroxypyridinone as an Input for New Imaging Probes: Thermodynamic Stability, Molecular Modeling and Biodistribution” (Molecules, 2025)", "key": {"[1]": {"conditions": "cited from earlier work; for pGd: pH 7.4"}, "[2]": {"conditions": "in water; cited from earlier work"}, "[3]": {"assay": "Potentiometric titration of the 1:1 Gd/L system: stability constants of the Gd(III) complexes, pGd, species distribution", "format": "physicochemical", "method": "(§1) All the studies were performed by potentiometric titrations of the ligand alone or in the presence of a 1:1 Gd/L stoichiometric ratio (Figure 1), which allowed for the determination of the protonation constants of KEMPPr(3,4-HP)3, as well as the stability constants of the formed Gd(III) complexes, from the best fitting of the experimental curves with the Hyperquad program (Table 1). Other Gd-to-ligand molar ratios were not considered in the present study, because it was admitted that species with a 1:2 stoichiometric ratio are present only at quite low concentrations for pH ca 7 [10].\nAnalysis of the potentiometric titration curves (Figure 1), namely those obtained for the Gd(III)/KEMPPr(3,4-HP)3 system under 1:1 (Gd/L) stoichiometry, evidences a change in the deprotonation profile of the ligand due to its coordination to Gd (III). Since some precipitation was detected above pH = 6, the corresponding experimental points were not used in the calculations to obtain the Gd (III) complexation model. The obtained Gd(III) complexation model presents some similarities to that previously found for H3L2 (see Table 1), firstly involving the formation of a bis-chelated GdH4L^4+ species, a GdH2L^2+ tetra-chelated complex, and afterwards the formation of a neutral hexa-coordinated GdL species. […] Concerning the Gd(III)/H3L2 system (in water, CL = CGd = 3.2 × 10^−4 M), the Gd(III) complexation also begins at pH ca 2, and the GdL species forms at pH ca 3.7 and becomes dominant at pH 4.5 [11]. For the Gd (III)/NTP (PrHP)3 system (in water), the GdL species is not involved in the proposed model.\n(§2) The compound KEMPPr(3,4-HP)3 was synthesized according to the previously published procedure. The GdCl3 stock solution (9.8 × 10^−3 M) was prepared from the gadolinium salt in HCl 0.1 M medium to avoid hydrolysis, and standardized by inductively coupled plasma emission (ICP). The 0.1 M HCl solution used in the calibration of the glass electrode was obtained from a Titrisol ampoule (Merck, Darmstadt, Germany). The precise amount of HCl in the Gd(III) solution was determined by the standard-addition method using 0.1 M HCl (Titrisol). The titrant solution used in the potentiometric titrations was obtained from a carbonate-free 0.1 M KOH commercial ampoule (Titrisol) and standardized by titration with potassium hydrogen phthalate, and rejected whenever the percentage of carbonate (Gran’s method) was higher than 1% of the total amount of base. The potentiometric studies were performed with an automated potentiometric apparatus containing a Crison micropH 2002 millivoltimeter, a Crison microBu 2031 burette (Crison Instruments, Barcelona, Spain) and a Haake thermostatic bath (Haake Technik GmbH, Vreden, Germany, T = 25.0 ± 0.1 °C), controlled by the PASAT program. The glass and Ag/AgCl reference electrodes were previously conditioned in different DMSO/water mixtures of an increasing DMSO % composition (until 50%) and the response of the glass electrode was measured through the determination of the Nernst parameters by Gran’s method, obtained from strong acid–strong base (HCl/KOH) calibrations.\nPotentiometric titrations of compound KEMPPr(3,4-HP)3, in the absence or presence of Gd(III), were performed in 50% (w/w) DMSO/water medium at an ionic strength (I) of 0.1 M KCl, T = 25.0 ± 0.1 °C, using 0.1 M KOH titrant. Each titration was repeated three times, for which the total volume was 20 mL, the total concentration of ligand (CL) was 3.2 × 10^−4 M and the Gd^3+/KEMPPr(3,4-HP)3 molar ratios were 0:1 and 1:1.\nThe stepwise protonation constants, Ki = [HiL]/[Hi−1L][H] of the ligand, and the global stability constants of the Gd(III) complex, β (GdmHhL) = [GdmHhLl]/[Gd]^m[H]^h[L]^l, were calculated by fitting the potentiometric data with the Hyperquad 2003 software. […]"}, "[4]": {"assay": "Potentiometric titration of the ligand alone: protonation constants and species distribution", "format": "physicochemical", "method": "as §1\nas §2, with “calibrations. […]” for “calibrations.”\nThe stepwise protonation constants, Ki = [HiL]/[Hi−1L][H] of the ligand, and the global stability constants of the Gd(III) complex, β (GdmHhL) = [GdmHhLl]/[Gd]^m[H]^h[L]^l, were calculated by fitting the potentiometric data with the Hyperquad 2003 software. The gadolinium hydrolysis model and ionic product of water (Kw) were determined under the same experimental conditions (50% (w/w) DMSO/water medium, I = 0.1 M KCl, T = 25.0 ± 0.1 °C) and the values obtained for the stability constants (log β (GdH−2) = −15.17, log β (GdH−3) = −24.06) were included in the equilibrium model as well as the value of Kw (10^−14.95). […]"}, "[5]": {"assay": "Literature Gd(III) complex stability constants and pGd of comparison ligands", "format": "physicochemical", "conditions": "pH = 7, CL = 10^−5 M, CL/CGd = 10, from constants in water"}, "[6]": {"conditions": "in water, CL = CGd = 3.2 × 10^−4 M"}, "[7]": {"conditions": "50% w/w DMSO/water, CL = 3.2 × 10^−4 M, 1:1"}, "[8]": {"conditions": "50% w/w DMSO/water, T = 25.0 ± 0.1 °C, I = 0.1 M KCl"}, "[9]": {"conditions": "physiological pH (7.4), 50% (w/w) DMSO/water"}}, "note": "Read-outs that look alike come from different tables or passages of the source.", "data": [{"smiles": "O=C(O)CN1CCN(CC(=O)O)CCN(CC(=O)O)CCN(CC(=O)O)CC1", "note": "[DOTA, 1,4,7,10-tetraazacyclododecane N,N′,N″,N‴-tetra-acetic acid]", "values": [{"measurement": "pGd", "setting": "[1]", "result": 20.4}]}, {"smiles": "O=C(O)CN(CCN(CC(=O)O)CC(=O)O)CCN(CC(=O)O)CC(=O)O", "note": "[DTPA, diethylenetriamine penta-acetic acid]", "values": [{"measurement": "pGd", "setting": "[1]", "result": 19.1}]}, {"smiles": "Cc1c(O)c(=O)ccn1CCCNC(=O)CCC(CCC(=O)NCCCn1ccc(=O)c(O)c1C)(CCC(=O)NCCCn1ccc(=O)c(O)c1C)[N+](=O)[O-]", "note": "[H3L2]", "values": [{"measurement": "pH at which Gd(III) complexation begins", "setting": "[1]; [6]", "result": "~2"}, {"measurement": "pH at which the GdL species becomes dominant", "setting": "[1]; [6]", "result": 4.5}, {"measurement": "pH at which the GdL species forms", "setting": "[1]; [6]", "result": "~3.7"}, {"measurement": "log β (GdmHhLl), (m,h,l) = (1,0,1) (log KGdL)", "setting": "[1]; in water", "result": "21.22(5)"}, {"measurement": "log β (GdmHhLl), (m,h,l) = (1,2,1)", "setting": "[1]; in water", "result": "30.03(6)"}, {"measurement": "log β (GdmHhLl), (m,h,l) = (1,4,1)", "setting": "[1]; in water", "result": "37.74(4)"}, {"measurement": "pGd (−log [Gd(III)])", "setting": "[1]; pH = 7, CL = 10^−5 M, CL/CGd = 10, in water", "result": 14.3}, {"measurement": "difference between log K4 and log K5", "setting": "[2]", "result": 1.15}]}, {"smiles": "Cc1c(O)c(=O)ccn1CCCNC(=O)C1(C)CC(C)(C(=O)NCCCn2ccc(=O)c(O)c2C)CC(C)(C(=O)NCCCn2ccc(=O)c(O)c2C)C1", "note": "(centres unmarked) [KEMPPr(3,4-HP)3]", "values": [{"measurement": "pH at which Gd(III) complexation begins", "setting": "[3]; [7]", "result": "~2"}, {"measurement": "pH at which the GdL complex becomes prevalent", "setting": "[3]; [7]", "result": 4.8}, {"measurement": "pH at which the neutral GdL complex begins to form", "setting": "[3]; [7]", "result": "~3.5"}, {"measurement": "log β (GdmHhLl), (m,h,l) = (1,0,1) (log β GdL)", "setting": "[3]; [8]", "result": "26.59(8)"}, {"measurement": "log β (GdmHhLl), (m,h,l) = (1,1,1)", "setting": "[3]; [8]", "result": "31.30(4)"}, {"measurement": "log β (GdmHhLl), (m,h,l) = (1,2,1)", "setting": "[3]; [8]", "result": "35.17(7)"}, {"measurement": "log β (GdmHhLl), (m,h,l) = (1,4,1)", "setting": "[3]; [8]", "result": "41.35(8)"}, {"measurement": "log β (GdmHhLl), (m,h,l) = (1,0,1) (log β GdL)", "setting": "[3]; 50% w/w DMSO/water, T = 25.0 ± 0.1 °C, I = 0.1 M KCl, listed as H3L", "result": 26.59}, {"measurement": "pGd (−log [Gd(III)])", "setting": "[3]; pH = 6, CL = 10^−5 M, CL/CGd = 10, 50% w/w DMSO/water", "result": 13.2}, {"measurement": "difference between log K2 and log K3", "setting": "[4]; 50% w/w DMSO/water", "result": 1.1}, {"measurement": "composition of the solution: H3L species", "setting": "[4]; [9]", "result": 99.95, "unit": "%"}, {"measurement": "composition of the solution: monocharged H4L^+ species", "setting": "[4]; [9]", "result": 0.05, "unit": "%"}, {"measurement": "pH range of predominance of the neutral H3L species", "setting": "[4]; species distribution, CL = 3.2 × 10^−4 M, 50% (w/w) DMSO/water", "result": "3.4–9.9"}]}, {"smiles": "Cc1c(O)c(=O)ccn1CCCNC(=O)CCN(CCC(=O)NCCCn1ccc(=O)c(O)c1C)CCC(=O)NCCCn1ccc(=O)c(O)c1C", "note": "[NTP(PrHP)3]", "values": [{"measurement": "log β (GdmHhLl), (m,h,l) = (1,1,1) (log KGdHL)", "setting": "[1]; in water", "result": 26.35}, {"measurement": "log β (GdmHhLl), (m,h,l) = (1,2,1)", "setting": "[1]; in water", "result": 31.16}, {"measurement": "log β (GdmHhLl), (m,h,l) = (1,3,1)", "setting": "[1]; in water", "result": 35.69}, {"measurement": "log β (GdmHhLl), (m,h,l) = (1,3,2)", "setting": "[1]; in water", "result": 52.3}, {"measurement": "log β (GdmHhLl), (m,h,l) = (1,4,1)", "setting": "[1]; in water", "result": 39.46}, {"measurement": "log β (GdmHhLl), (m,h,l) = (1,5,1)", "setting": "[1]; in water", "result": 42.8}, {"measurement": "log β (GdmHhLl), (m,h,l) = (1,5,2)", "setting": "[1]; in water", "result": 65.3}, {"measurement": "pGd (−log [Gd(III)])", "setting": "[5]", "result": 12.3}]}, {"smiles": "Cn1ccc(C(=O)NCCN(CCNC(=O)c2ccn(C)c(=O)c2O)CCNC(=O)c2ccn(C)c(=O)c2O)c(O)c1=O", "note": "[TREN-1-Me-3,2-HOPO]", "values": [{"measurement": "log KGdL (thermodynamic stability of the Gd(III) complex)", "setting": "[1]", "result": 19.2}]}]}
